Measured values as given in patent publication US20250197372A1 (priority 2020, published 2025).
Read-outs that look alike come from different tables or passages of the source.

Experiments:
Format in all cases: biochemical
[1] = target: recombinant human GAA (acid alpha-glucosidase) (Homo sapiens, UniProt P10253); test: Acid alpha-glucosidase (GAA) assay (4-methylumbelliferyl-alpha-D-pyranoside substrate, fluorescence)
Method in brief: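 IC50 from 4-PL curve fit of percent inhibition, based on fluorescence (365/440 nm) of released methylumbelliferone relative to uninhibited enzyme. Compound dilutions and human GAA incubated 60 min, 37 °C, before 20 min substrate reaction at 37 °C, quenched at pH 10.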

[2] = target: T1, recombinant alpha-glucosidase I (human full-length glucosidase I, Glu 1) (Homo sapiens, UniProt Q13724); test: Alpha-glucosidase I assay (Amplex Red glucose detection, synthetic trisaccharide substrate)
T1 construct: 6-His (C); made in house; host or cells: HEK-293T cells transduced with BacMam virus (virus raised in Sf9)
T1 sequence (Q13724 1-837): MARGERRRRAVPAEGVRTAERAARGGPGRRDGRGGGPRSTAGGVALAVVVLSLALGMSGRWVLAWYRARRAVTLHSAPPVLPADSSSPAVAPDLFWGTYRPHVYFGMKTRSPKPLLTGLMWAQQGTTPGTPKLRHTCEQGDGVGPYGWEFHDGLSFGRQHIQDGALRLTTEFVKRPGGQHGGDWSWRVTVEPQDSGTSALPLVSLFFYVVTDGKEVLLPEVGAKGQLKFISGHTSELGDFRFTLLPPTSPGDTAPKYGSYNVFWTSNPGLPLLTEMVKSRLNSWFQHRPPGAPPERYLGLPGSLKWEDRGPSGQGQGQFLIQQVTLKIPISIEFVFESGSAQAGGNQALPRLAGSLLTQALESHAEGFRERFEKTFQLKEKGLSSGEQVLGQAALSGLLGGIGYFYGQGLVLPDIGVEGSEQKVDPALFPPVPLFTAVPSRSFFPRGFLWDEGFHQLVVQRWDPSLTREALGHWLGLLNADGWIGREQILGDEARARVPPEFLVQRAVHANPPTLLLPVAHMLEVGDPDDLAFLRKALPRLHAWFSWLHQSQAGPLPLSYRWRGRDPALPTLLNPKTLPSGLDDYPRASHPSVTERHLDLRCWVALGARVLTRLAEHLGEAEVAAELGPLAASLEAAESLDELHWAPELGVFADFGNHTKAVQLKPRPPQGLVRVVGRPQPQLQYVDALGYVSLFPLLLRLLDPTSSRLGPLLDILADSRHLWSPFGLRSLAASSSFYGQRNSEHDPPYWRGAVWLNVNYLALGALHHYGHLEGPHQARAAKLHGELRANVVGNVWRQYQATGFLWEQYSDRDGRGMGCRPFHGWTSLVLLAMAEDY
Method in brief: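 Compound dilution series incubated 60 min at 37° C with recombinant His-tagged human glucosidase I ([…]), after which trisaccharide substrate analog was added for 90 min at 37° C. Reaction quenched with 1.5M Tris pH 8; D-glucose detected by Amplex Red fluorescence, 560/590 nm. 4-PL curve fit of percent inhibition gave IC50.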

[3] = target: T2, recombinant alpha-glucosidase II (murine full-length glucosidase II, alpha and beta subunits, Glu 2) (Mus musculus, UniProt Q8BHN3); test: Alpha-glucosidase II assay (4-methylumbelliferyl-alpha-D-pyranoside substrate, fluorescence)
T2 construct: made in house; host or cells: HEK-293T cells transduced with BacMam viruses (75% alpha, 25% beta); protein harvested from culture supernatant
T2 sequence (O08795 15-521): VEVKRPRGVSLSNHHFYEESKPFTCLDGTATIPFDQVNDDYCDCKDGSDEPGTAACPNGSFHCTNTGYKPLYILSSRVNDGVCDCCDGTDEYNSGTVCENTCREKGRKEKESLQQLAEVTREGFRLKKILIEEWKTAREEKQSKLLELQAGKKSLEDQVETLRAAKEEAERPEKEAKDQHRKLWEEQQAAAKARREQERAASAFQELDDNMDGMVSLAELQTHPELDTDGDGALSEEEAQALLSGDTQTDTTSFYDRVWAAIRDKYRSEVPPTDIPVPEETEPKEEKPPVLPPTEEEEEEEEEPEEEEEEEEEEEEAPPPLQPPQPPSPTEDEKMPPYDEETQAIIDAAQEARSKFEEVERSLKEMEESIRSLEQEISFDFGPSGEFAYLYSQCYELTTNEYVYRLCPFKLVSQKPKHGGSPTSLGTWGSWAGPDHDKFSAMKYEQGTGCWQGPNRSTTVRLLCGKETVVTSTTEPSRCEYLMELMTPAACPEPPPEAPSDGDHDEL
T2 sequence (Q8BHN3 33-944): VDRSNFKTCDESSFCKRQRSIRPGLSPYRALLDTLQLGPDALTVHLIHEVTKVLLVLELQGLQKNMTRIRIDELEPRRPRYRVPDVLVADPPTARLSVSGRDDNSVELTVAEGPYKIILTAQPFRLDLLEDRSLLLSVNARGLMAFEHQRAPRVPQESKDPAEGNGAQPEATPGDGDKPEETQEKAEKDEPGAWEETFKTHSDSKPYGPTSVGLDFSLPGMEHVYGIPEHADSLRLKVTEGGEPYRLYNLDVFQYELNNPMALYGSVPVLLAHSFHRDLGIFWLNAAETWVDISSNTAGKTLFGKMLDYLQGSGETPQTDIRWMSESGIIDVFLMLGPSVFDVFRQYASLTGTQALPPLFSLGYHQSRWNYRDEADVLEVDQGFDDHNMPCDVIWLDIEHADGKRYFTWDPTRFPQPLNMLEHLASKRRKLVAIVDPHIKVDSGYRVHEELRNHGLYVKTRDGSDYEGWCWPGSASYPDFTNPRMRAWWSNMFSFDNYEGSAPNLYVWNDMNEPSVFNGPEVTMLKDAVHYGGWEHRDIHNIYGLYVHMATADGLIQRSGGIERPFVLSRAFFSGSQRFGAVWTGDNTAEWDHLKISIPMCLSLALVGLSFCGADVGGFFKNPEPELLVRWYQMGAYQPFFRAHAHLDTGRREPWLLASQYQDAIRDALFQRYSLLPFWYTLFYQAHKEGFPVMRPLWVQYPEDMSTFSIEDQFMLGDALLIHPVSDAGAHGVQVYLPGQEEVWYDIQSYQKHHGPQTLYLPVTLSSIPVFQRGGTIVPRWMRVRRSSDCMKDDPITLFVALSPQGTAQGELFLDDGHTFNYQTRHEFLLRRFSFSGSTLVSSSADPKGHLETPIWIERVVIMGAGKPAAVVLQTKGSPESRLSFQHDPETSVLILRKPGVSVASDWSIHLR

[4] = Glucosidase 2, read-out: Glu2 IC50
[5] = Glucosidase 1, read-out: Glu 1 IC50

## C[C@@H]1CN(c2ccc(NCc3ccc(CN4C[C@H](O)[C@@H](O)[C@H](O)[C@H]4CO)cc3)c([N+](=O)[O-])c2)C[C@H](C)O1 [Compound 1014]
[1]
  IC50: 30 nM
[2]
  IC50: 1 nM
[3]; [4]
  IC50: 4 nM

## [N-]=[N+]=Nc1ccc(NCCc2ccc(CCN3C[C@H](O)[C@@H](O)[C@H](O)[C@H]3CO)cc2)c([N+](=O)[O-])c1 [Compound 1200, (2R,3R,4R,5S)-1-[2-(4-{2-[(4-azido-2-nitrophenyl)amino]ethyl}phenyl)ethyl]-2-(hydroxymethyl)piperidine-3,4,5-triol]
[1]
  IC50: 1160 nM
[2]; [5]
  IC50: 31 nM
[3]; [4]
  IC50: 6 nM

## [N-]=[N+]=Nc1ccc(NCCn2cc(CCN3C[C@H](O)[C@@H](O)[C@H](O)[C@H]3CO)c3ccccc32)c([N+](=O)[O-])c1 [Compound 1177, (2R,3R,4R,5S)-1-[2-(1-{2-[(4-azido-2-nitrophenyl)amino]ethyl}-1H-indol-3-yl)ethyl]-2-(hydroxymethyl)piperidine-3,4,5-triol]
[1]
  IC50: 5540 nM
[2]; [5]
  IC50: 374 nM
[3]; [4]
  IC50: 65 nM

## COc1cc(NCCCCCCN2C[C@H](O)[C@@H](O)[C@H](O)[C@H]2CO)cc(C2CCCO2)c1 (stereo partly drawn) [Compound 1146, (2R,3R,4R,5S)-2-(hydroxymethyl)-1-(6-{[3-methoxy-5-(oxolan-2-yl)phenyl]amino}hexyl)piperidine-3,4,5-triol]
[1]
  IC50: 68 nM
[2]; [5]
  IC50: 511 nM
[3]; [4]
  IC50: 15 nM

## OC[C@@H]1[C@@H](O)[C@H](O)[C@@H](O)CN1Cc1ccc(CNc2ccc(N3CCOCC3)cc2)cc1 [Compound 1068]
[1]
  IC50: 386 nM
[2]
  IC50: 122 nM
[3]; [4]
  IC50: 1580 nM

## Cc1cc(-c2ccco2)ccc1NCc1ccc(CN2C[C@H](O)[C@@H](O)[C@H](O)[C@H]2CO)cc1 [Compound 1324, (2R,3R,4R,5S)-1-{[4-({[4-(furan-2-yl)-2-methylphenyl]amino}methyl)phenyl]methyl}-2-(hydroxymethyl)piperidine-3,4,5-triol]
[1]
  IC50: 80 nM
[2]
  IC50: < 1 nM
[3]; [4]
  IC50: 318 nM

## COc1cc(-c2ncco2)ccc1NCCCCCCN1C[C@H](O)[C@@H](O)[C@H](O)[C@H]1CO [Compound 1207, (2R,3R,4R,5S)-2-(hydroxymethyl)-1-(6-{[2-methoxy-4-(1,3-oxazol-2-yl)phenyl]amino}hexyl)piperidine-3,4,5-triol]
[1]
  IC50: 75 nM
[2]; [5]
  IC50: 118 nM
[3]; [4]
  IC50: 14 nM

## O=Cc1cc(NCCCCCCN2C[C@H](O)[C@@H](O)[C@H](O)[C@H]2CO)cc(-c2ncccn2)c1 [Compound 1129, 3-(pyrimidin-2-yl)-5-({6-[(2R,3R,4R,5S)-3,4,5-trihydroxy-2-(hydroxymethyl)piperidin-1-yl]hexyl}amino)benzaldehyde]
[1]
  IC50: 28 nM
[2]; [5]
  IC50: 148 nM
[3]; [4]
  IC50: 7 nM

## [N-]=[N+]=Nc1ccc(NCCc2nccc(CCN3C[C@H](O)[C@@H](O)[C@H](O)[C@H]3CO)n2)c([N+](=O)[O-])c1 [Compound 1188, (2R,3R,4R,5S)-1-[2-(2-{2-[(4-azido-2-nitrophenyl)amino]ethyl}pyrimidin-4-yl)ethyl]-2-(hydroxymethyl)piperidine-3,4,5-triol]
[1]
  IC50: 838 nM
[2]; [5]
  IC50: 762 nM
[3]; [4]
  IC50: 1140 nM

## Cc1cc(NCc2cccc(CN3C[C@H](O)[C@@H](O)[C@H](O)[C@H]3CO)c2)cc(-c2ncccn2)c1 [Compound 1035, (2R,3R,4R,5S)-2-(hydroxymethyl)-1-{[3-({[3-methyl-5-(pyrimidin-2-yl)phenyl]amino}methyl)phenyl]methyl}piperidine-3,4,5-triol]
[1]
  IC50: 5100 nM
[2]
  IC50: 44 nM
[3]; [4]
  IC50: 66500 nM

## COc1cc(NCCCCCCN2C[C@H](O)[C@@H](O)[C@H](O)[C@H]2CO)cc(C2CCCCC2)c1 [Compound 1148, (2R,3R,4R,5S)-1-{6-[(3-cyclohexyl-5-methoxyphenyl)amino]hexyl}-2-(hydroxymethyl)piperidine-3,4,5-triol]
[1]
  IC50: 88 nM
[2]; [5]
  IC50: 372 nM
[3]; [4]
  IC50: < 1 nM

## COc1cc(NCCc2ccc(CCN3C[C@H](O)[C@@H](O)[C@H](O)[C@H]3CO)cc2)cc(-c2ccco2)c1 [Compound 1153, (2R,3R,4R,5S)-1-{2-[4-(2-{[3-(furan-2-yl)-5-methoxy-phenyl]amino}ethyl)phenyl]ethyl}-2-(hydroxymethyl)piperidine-3,4,5-triol]
[1]
  IC50: 57 nM
[2]; [5]
  IC50: 1360 nM
[3]; [4]
  IC50: 544 nM

## OC[C@@H]1[C@@H](O)[C@H](O)[C@@H](O)CN1CCCCCCNc1ccc(-c2cccnn2)cc1Cl [Compound 1202, (2R,3R,4R,5S)-1-(6-{[2-chloro-4-(pyridazin-3-yl)phenyl]amino}hexyl)-2-(hydroxymethyl)piperidine-3,4,5-triol]
[1]
  IC50: 39 nM
[2]; [5]
  IC50: < 1 nM
[3]; [4]
  IC50: < 1 nM

## COc1cc(NCCc2ccc(CCN3C[C@H](O)[C@@H](O)[C@H](O)[C@H]3CO)cc2)cc(C2=CCOCC2)c1 [Compound 1154, (2R,3R,4R,5S)-1-{2-[4-(2-{[3-(3,6-dihydro-2H-pyran-4-yl)-5-methoxyphenyl]amino}ethyl)phenyl]ethyl}-2-(hydroxymethyl)piperidine-3,4,5-triol]
[1]
  IC50: 296 nM
[2]; [5]
  IC50: 919 nM
[3]; [4]
  IC50: 2 nM

## COc1cc(CC2CCOC2)cc(NCCCCCCN2C[C@H](O)[C@@H](O)[C@H](O)[C@H]2CO)c1 (stereo partly drawn) [Compound 1141, (2R,3R,4R,5S)-2-(hydroxymethyl)-1-[6-({3-methoxy-5-[(oxolan-3-yl)methyl]phenyl}amino)hexyl]piperidine-3,4,5-triol]
[1]
  IC50: 188 nM
[2]; [5]
  IC50: 1160 nM
[3]; [4]
  IC50: 139 nM

## COc1cc(NCCCCCCN2C[C@H](O)[C@@H](O)[C@H](O)[C@H]2CO)cc(-c2cnccn2)c1 [Compound 1197, (2R,3R,4R,5S)-2-(hydroxymethyl)-1-(6-{[3-methoxy-5-(pyrazin-2-yl)phenyl]amino}hexyl)piperidine-3,4,5-triol]
[1]
  IC50: 37 nM
[2]; [5]
  IC50: 140 nM
[3]; [4]
  IC50: 1 nM

## [N-]=[N+]=Nc1ccc(NCCc2cc(Br)cc(CCN3C[C@H](O)[C@@H](O)[C@H](O)[C@H]3CO)c2)c([N+](=O)[O-])c1 [Compound 1140, (2R,3R,4R,5S)-1-[2-(3-{2-[(4-azido-2-nitrophenyl)amino]ethyl}-5-bromophenyl)ethyl]-2-(hydroxymethyl)piperidine-3,4,5-triol]
[1]
  IC50: 2090 nM
[2]; [5]
  IC50: 153 nM
[3]; [4]
  IC50: 45 nM

## OC[C@@H]1[C@@H](O)[C@H](O)[C@@H](O)CN1CCc1ccc(CCNc2cc(Cl)cc(-c3ncon3)c2)cc1 [Compound 1113, (2R,3R,4R,5S)-1-{2-[4-(2-{[3-chloro-5-(1,2,4-oxadiazol-3-yl)phenyl]amino}ethyl)phenyl]ethyl}-2-(hydroxymethyl)piperidine-3,4,5-triol]
[1]
  IC50: 380 nM
[2]
  IC50: 1010 nM
[3]
  IC50: 296 nM

## OC[C@@H]1[C@@H](O)[C@H](O)[C@@H](O)CN1CCCCCCNc1cc(Cl)cc(-c2cnccn2)c1 [Compound 1196, (2R,3R,4R,5S)-1-(6-{[3-chloro-5-(pyrazin-2-yl)phenyl]amino}hexyl)-2-(hydroxymethyl)piperidine-3,4,5-triol]
[1]
  IC50: 10 nM
[2]; [5]
  IC50: 105 nM
[3]; [4]
  IC50: 2 nM

## OC[C@@H]1[C@@H](O)[C@H](O)[C@@H](O)CN1Cc1ccc(CNc2cc(-c3cccnn3)cc(C3CC3)c2)cc1 [Compound 1012, (2R,3R,4R,5S)-1-{[4-({[3-cyclopropyl-5-(pyridazin-3-yl)phenyl]amino}methyl)phenyl]methyl}-2-(hydroxymethyl)piperidine-3,4,5-triol]
[1]
  IC50: 350 nM
[2]; [5]
  IC50: 18 nM
[3]; [4]
  IC50: 1320 nM
